Measurements reported in article PMC11079024, “Identification of a family of species-selective complex I inhibitors as potential anthelmintics” (Nature Communications, 2024).

System: anthelmintic/nematicide-resistant C. elegans mutant strains
Test: microbe, parasite or virus in culture
Description: In addition to the Caenorhabditis elegans wild-type N2 strain, this work included the following C. elegans strains: CB1003 (kynu-1(e1003) X); anthelmintic-resistant strains—CB3474 (ben-1(e1880) III), CB193 (unc-29(e193) I), HY496 (bre-1(ye4) IV), RB2119 (acr-23(ok2804) V), JD608 (avr-14(ad1302) I; avr-15(ad1051) V; glc-1 (pk54) V), NM1968 (slo-1(js379) V), RP2635 (mev-1(tr355) III); benzimidazole-resistant CRISPR strains—ECA882 (ben-1(ean64) III), ECA917 (ben-1(ean98) III), ECA1075 (ben-1(ean143) III), ECA1080 (ben-1(ean148) III). This work also featured several additional free-living nematode strains: C. briggsae strain AF16, P. pacificus strain PS312, and P. hermaphrodita strain B178. The four CRISPR-generated benzimidazole-resistant C. elegans mutants were generously provided by Prof. Erik Andersen (Johns Hopkins University); PS312 and B178 were generously provided by Prof. Peter Roy (University of Toronto); all other strains were obtained from the Caenorhabditis Genetics Center (CGC, University of Minnesota). All strains were cultured and propagated at 20 °C on NGM (nematode growth medium) agar plates seeded with E. coli OP50 (Stiernagle, 2006)[56].
Liquid development and viability assays were adapted from a previously established chemical screening protocol (Burns et al.)[24]. In brief, a saturated culture of E. coli HB101 was concentrated 2-fold in liquid NGM and 40 μL of this suspension was distributed to each well of a 96-well flat-bottom culture plate. 0.5 μL chemical solution (or DMSO alone) was added to each well (1% DMSO v/v) using either a multi-channel pipette or a pinning tool (V&P Scientific). L1 worms synchronized from an embryo preparation performed the day prior were diluted to a concentration of ~2 worms/μL in M9 buffer; 10 μL worm suspension was then added to each well. Culture plates were sealed with parafilm and placed in a plastic container lined with wet paper towels to prevent evaporation. Containers were then incubated for 6 days at 20 °C with shaking at 165 rpm. Following incubation, 300 μL M9 was added to each well to decrease the turbidity of the HB101-NGM suspension. Single images of each microplate well were then taken on a Nikon Ti Eclipse inverted microscope (Nikon NIS Elements AR). Images were processed using Python scripts to isolate worm-associated pixels from background. Scores of worm development and viability were determined as the sum of worm-associated pixels in each well. Development/viability scores for each well were divided by the development /viability scores for the corresponding DMSO controls, resulting in a relative viability value for each chemical. At least three biological replicates were performed for each dose-response experiment; relative viability values were averaged across replicates.
Supplementary Table 2. Sensitivity of anthelmintic/nematicide-resistant strains to Class A, B, and C
benzimidazole complex I inhibitors.
LC50s were estimated from fitted dose-
response curves; all dose response data are the mean of at least three biological replicates.
Supplementary Table 2. Davie et al.

In the case of `c1ccc2[nH]c(-c3cscn3)nc2c1` [Thiabendazole], the “C. elegans L1 relative development & viability” value (CB3474 G104D (ben-1), 1 µM, score 0-1 relative to DMSO, values >1 set to 1) is reported as 1.000, the “C. elegans L1 relative development & viability” value (CB3474 G104D (ben-1), 2 µM, score 0-1 relative to DMSO, values >1 set to 1) is reported as 1.000 and the “C. elegans L1 relative development & viability” value (CB3474 G104D (ben-1), 3.9 µM, score 0-1 relative to DMSO, values >1 set to 1) is reported as 1.000. For the same compound, the “C. elegans L1 relative development & viability” value (CB3474 G104D (ben-1), 15.6 µM, score 0-1 relative to DMSO, values >1 set to 1) was 1.000, the “C. elegans L1 relative development & viability” value (CB3474 G104D (ben-1), 31.3 µM, score 0-1 relative to DMSO, values >1 set to 1) was 1.000 and the “C. elegans L1 relative development & viability” value (CB3474 G104D (ben-1), 62.5 µM, score 0-1 relative to DMSO, values >1 set to 1) was 1.000. The “C. elegans L1 relative development & viability” value (CB3474 G104D (ben-1), 125 µM, score 0-1 relative to DMSO, values >1 set to 1) was 1.000, the “C. elegans L1 relative development & viability” value (CB3474 G104D (ben-1), 250 µM, score 0-1 relative to DMSO, values >1 set to 1) was 1.000 and the “C. elegans L1 relative development & viability” value (CB3474 G104D (ben-1), 500 µM, […]) was 0.035. For the same compound, the “C. elegans L1 relative development & viability” value (ECA917 F200Y (ben-1), 1 µM, score 0-1 relative to DMSO, values >1 set to 1) was 1.000, the “C. elegans L1 relative development & viability” value (ECA917 F200Y (ben-1), 2 µM, score 0-1 relative to DMSO, values >1 set to 1) was 1.000 and the “C. elegans L1 relative development & viability” value (ECA917 F200Y (ben-1), 3.9 µM, score 0-1 relative to DMSO, values >1 set to 1) was 1.000. For the same compound, the “C. elegans L1 relative development & viability” value (ECA917 F200Y (ben-1), 15.6 µM, score 0-1 relative to DMSO, values >1 set to 1) was 1.000, the “C. elegans L1 relative development & viability” value (ECA917 F200Y (ben-1), 31.3 µM, score 0-1 relative to DMSO, values >1 set to 1) was 1.000 and the “C. elegans L1 relative development & viability” value (ECA917 F200Y (ben-1), 62.5 µM, score 0-1 relative to DMSO, values >1 set to 1) was 1.000. For the same compound, the “C. elegans L1 relative development & viability” value (ECA917 F200Y (ben-1), 125 µM, score 0-1 relative to DMSO, values >1 set to 1) was 1.000, the “C. elegans L1 relative development & viability” value (ECA917 F200Y (ben-1), 250 µM, score 0-1 relative to DMSO, values >1 set to 1) was 1.000 and the “C. elegans L1 relative development & viability” value (ECA917 F200Y (ben-1), 500 µM, […]) was 0.056. The “C. elegans L1 relative development & viability” value (ECA1075 F167Y (ben-1), 1 µM, score 0-1 relative to DMSO, values >1 set to 1) was 1.000, the “C. elegans L1 relative development & viability” value (ECA1075 F167Y (ben-1), 2 µM, score 0-1 relative to DMSO, values >1 set to 1) was 1.000 and the “C. elegans L1 relative development & viability” value (ECA1075 F167Y (ben-1), 3.9 µM, score 0-1 relative to DMSO, values >1 set to 1) was 1.000. The “C. elegans L1 relative development & viability” value (ECA1075 F167Y (ben-1), 15.6 µM, score 0-1 relative to DMSO, values >1 set to 1) was 1.000, the “C. elegans L1 relative development & viability” value (ECA1075 F167Y (ben-1), 31.3 µM, score 0-1 relative to DMSO, values >1 set to 1) was 1.000 and the “C. elegans L1 relative development & viability” value (ECA1075 F167Y (ben-1), 62.5 µM, score 0-1 relative to DMSO, values >1 set to 1) was 1.000. For the same compound, the “C. elegans L1 relative development & viability” value (ECA1075 F167Y (ben-1), 125 µM, score 0-1 relative to DMSO, values >1 set to 1) was 1.000, the “C. elegans L1 relative development & viability” value (ECA1075 F167Y (ben-1), 250 µM, score 0-1 relative to DMSO, values >1 set to 1) was 1.000 and the “C. elegans L1 relative development & viability” value (ECA1075 F167Y (ben-1), 500 µM, […]) was 0.028. The “C. elegans L1 relative development & viability” value (ECA1080 E198A (ben-1), 1 µM, score 0-1 relative to DMSO, values >1 set to 1) was 1.000, the “C. elegans L1 relative development & viability” value (ECA1080 E198A (ben-1), 2 µM, score 0-1 relative to DMSO, values >1 set to 1) was 1.000 and the “C. elegans L1 relative development & viability” value (ECA1080 E198A (ben-1), 3.9 µM, score 0-1 relative to DMSO, values >1 set to 1) was 1.000. The “C. elegans L1 relative development & viability” value (ECA1080 E198A (ben-1), 15.6 µM, score 0-1 relative to DMSO, values >1 set to 1) was 1.000, the “C. elegans L1 relative development & viability” value (ECA1080 E198A (ben-1), 31.3 µM, score 0-1 relative to DMSO, values >1 set to 1) was 1.000 and the “C. elegans L1 relative development & viability” value (ECA1080 E198A (ben-1), 62.5 µM, score 0-1 relative to DMSO, values >1 set to 1) was 1.000. For the same compound, the “C. elegans L1 relative development & viability” value (ECA1080 E198A (ben-1), 125 µM, score 0-1 relative to DMSO, values >1 set to 1) was 1.000, the “C. elegans L1 relative development & viability” value (ECA1080 E198A (ben-1), 250 µM, score 0-1 relative to DMSO, values >1 set to 1) was 1.000 and the “C. elegans L1 relative development & viability” value (ECA1080 E198A (ben-1), 500 µM, […]) was 0.041.
